Measurements taken from patent publication US20250312320A1, “METHOD AND TREATMENT FOR OSTEOARTHRITIS AND DISEASES OF CHONDROCYTE HYPERTROPHY” (The Royal Veterinary College, priority 2022, published 2025).
“Also recorded” adds a separate entry of the source.

How the values were obtained:
[1] = system: primary human articular chondrocytes; assay: Primary human articular chondrocytes in chondrogenesis and IL1β OA disease model: gene expression; format: cell-based; settings: 100 nM; for MATN3 gene expression, increase vs DMSO / SMOC2 gene expression, increase vs DMSO: N=1
Experimental: (§1) Articular cartilage was isolated, placed into a petri dish containing phosphate buffer saline (PBS) supplemented with 2% Ab/Am (PBS-Ab/Am) and transferred to a laminar flow hood for processing. Cartilage shavings were minced using a sterile scalpel to approximately 1 mm^3 and washed in fresh PBS-Ab/Am by centrifugation at 500×g for 10 minutes. Supernatant was removed and the cartilage pellet resuspended in 5 ml TrypLE™ (Gibco) before incubation at 37° C. for 10 minutes with gentle agitation. Dissociated cartilage fragments were pelleted and washed to remove excess TrypLE and resuspended in DMEM-complete media (DMEM/F12 (Gibco), 1% Ab/Am, 10% FBS) supplemented with 2 mg/ml Collagenase Type II and incubated overnight at 37° C. with gentle agitation. The cartilage digest was pelleted, washed and subsequently resuspended in DMEM-complete. Released cells were counted using a haematocytometer and seeded at 10,000 cells per cm^2. The cultures were incubated at 37° C., 5% CO2 in a humidified incubator for 2 days before refreshing DMEM-complete every 2 days until confluency. For differentiation experiments, primary chondrocytes were differentiated in DMEM/F12 containing 2% FBS, 1% Ab/Am, 1× Insulin-Transferrin-Selenium premix, 10 ng/ml TGFβ3 (primary chondrocyte differentiation media).
Additional experiments were carried out on primary chondrocytes (equine, canine and human) and ihMSC (TERT immortalised human mesenchymal stromal cell line) to investigate whether CDK8i protects from IL-1β induced degradation when added throughout the entirety of differentiation/IL-1β treatment. Briefly, ihMSCs were seeded at a density of 5×10^4 cells per 10 μl micromass and differentiated in ihMSC chondrogenic media (1% FBS, 1% Ab/Am, 1× Insulin-Transferrin-Selenium premix, 10 μM Y-27632, 100 nM dexamethasone, 50 μg/ml ascorbic acid, 20 ng/ml TGF-β3 (Peprotech)). Primary chondrocytes were seeded at 2.7×10^5 cells per 10 μl micromass and differentiated in primary chondrocyte differentiation media. All micromasses were differentiated for 12 days in the presence of 100 nM […] or DMSO. Some micromasses were processed for gene expression analysis/alcian blue staining on day 12, whilst others were treated with IL-β media (1% FBS, 1% Ab/Am, 10 ng/ml IL-1B) and CDK8i for 48-hours before processing for alcian blue staining/gene expression analysis on day 14 as previously described.

[2] = system: hypertrophic ATDC5 micromasses; assay: Metabolic analysis (MitoStress Test, Seahorse XF) of hypertrophic ATDC5 micromasses; format: cell-based, mouse; settings: 1 μM
Experimental: This higher dependency on glycolysis for energy production is linked to enhanced catabolic processes, therefore reducing glycolysis has been proposed as a therapeutic approach for OA (Tan et al. (2022) “A new strategy for osteoarthritis therapy: Inhibition of glycolysis”. Front Pharmacol. 2022 Nov. 10; 13:1057229. doi: 10.3389/fphar.2022.1057229.). To assess energy metabolism of hypertrophic ATDC5 cells in the presence of CDK8i, 2 μl micromasses were seeded onto a Seahorse XF HS Miniplate (Agilent). Micromasses were differentiated in the presence of MSC2530818 as previously described for 1 week before switching to mineralisation media containing MSC2530818 for 24 hours. The MitoStress Test (Agilent) was carried out on hypertrophic micromasses using 1.5 μM oligomycin, 0.5 μM […] and 0.25 μM FCCP which measured real-time extracellular acidification and oxygen consumption rate. Analysis via the Agilent Seahorse Analytics platform basal oxygen consumption rate and glycolysis measurements.

[3] = system: STR/Ort mouse (spontaneous osteoarthritis); assay: STR/Ort mouse 12 week study: gait analysis; format: in vivo; settings: 5 mg/kg intermittently
Experimental: Following the pilot study, a larger in vivo study using the STR/Ort OA mouse model was conducted. Str/ORT male mice aged 22 weeks (post OA onset) were dosed with either DMSO (N=5) or MSC2530818 5 mg/kg (N=6) intermittently as above for 12 weeks.
On week 11 mice were placed on the DigiGate™ system (MouseSpecifics), a treadmill based video gait analysis software. For Gait analysis, each mouse was placed on the DigiGate™ and allowed to acclimatise for 5 minutes, the belt speed was then set to 13 cm/s for 10 seconds to capture videos of mice whilst walking. Videos were then cropped to 5 seconds of active walking and number of steps per hind limb was counted for each mouse.

[4] = system: primary equine chondrocytes; assay: Primary equine chondrocyte micromass treated with BI1347: gene expression; format: cell-based; settings: 1 μM
Experimental: as §1
For primary equine chondrocytes, chondrocytes were seeded in 10 μl micromasses as above and differentiated for 14 days in presence of primary chondrocyte differentiation media supplemented with 1 μM BI1347 before processing for gene expression analysis as described above.

[5] = system: THP-1 derived macrophages; assay: LPS stimulated THP-1 derived macrophages: gene expression; format: cell-based, human; settings: 1 μM, 1 h pretreatment + 24 h LPS
Experimental: THP-1 monocytes were differentiated into macrophages via treatment with 50 ng/ml phorbol 12-myristate 13-acetate (PMA) in THP-1 growth media (RPMI-1640, 100 μg/ml Primocin, 10% FBS, 0.05 mM β-mercaptoethanol) for 48 hours. Macrophages were then washed twice to remove PMA containing media before a 1-hour pretreatment with 1 μM BI1347 or 100 nM MSC2530818. Inflammatory stimulation was then initiated via the addition of lug/ml lipopolysaccharide (LPS) for 24 hours in the presence of 1 μM BI1347 or 100 nM MSC2530818. Gene expression analysis was subsequently carried out as previously outlined. For MSC2530818 treated/LPS stimulated cells, media supernatant was used for IL-1β cytokine analysis quantification via ELISA (PeproTech, ABTS Human IL-1β development ELISA) as per manufacturer instructions.

| Structure (SMILES) | ADAMTS5 gene expression, reduction vs DMSO ([1]; OA disease model (+IL1β), p=0.053) | MATN3 gene expression, increase vs DMSO ([1]; chondrogenic (−IL1β)) | SMOC2 gene expression, increase vs DMSO ([1]; chondrogenic (−IL1β)) | MATN3 gene expression, increase vs DMSO ([1]; disease model (+IL1β)) | SMOC2 gene expression, increase vs DMSO ([1]; disease model (+IL1β)) | decrease in total basal glycolysis (inferred from OCR/ECAR measurements) vs DMSO [2] | extracellular acidification rate (ECAR) vs DMSO ([2]; across the time course measured) | total basal oxygen consumption rate (OCR) vs DMSO ([2]; p=0.5085) | gait symmetry (left/right step ratio) ([3]; week 11) | number of steps per second, rear left limb, increase vs DMSO ([3]; week 11, MSC N=6, DMSO N=5) | number of steps per second, rear right limb, increase vs DMSO ([3]; week 11, MSC N=6, DMSO N=5) | ACAN expression, increase vs DMSO ([4]; day 14) | RUNX2 expression vs DMSO ([4]; day 14) | SOX9 expression, increase vs DMSO ([4]; day 14 (N.S)) | COL2A1 expression, increase vs DMSO ([4]; day 14, N=1) | NF-κB gene expression, decrease vs DMSO [5] | TLR4 gene expression, decrease vs DMSO [5] |
| --- | --- | --- | --- | --- | --- | --- | --- | --- | --- | --- | --- | --- | --- | --- | --- | --- | --- |
| Cc1n[nH]c2ncc(C(=O)N3CCC[C@H]3c3ccc(Cl)cc3)cc12 [MSC2530818] | 2.5 fold | 100 fold | 6 fold | 12 fold | 7 fold | 37% | lower than DMSO control | no significant difference | modified step symmetry; also recorded: closer to 1 | 1.25 fold | 1.5 fold |  |  |  |  |  |  |
| CN(C)C(=O)Cn1cc(-c2ccc(-c3cncc4ccccc34)cc2)cn1 [BI1347] |  |  |  |  |  |  |  |  |  |  |  | 14 fold | identical; also recorded: no increase | 1.5 fold | 9 fold | 6 fold | 9 fold |
